Earlier results in patent US20110190220A1, “Use of Defensin Alpha 1 and/or Defensin Alpha 4, as a Marker for Predicting Treatment Response and/or a Relapse in a Patient Suffering form Chronic Myeloid Leukemia” (priority 2008, published 2011).
Counter-ions that a name gives are not always drawn.

Test system: CML patients

## Cc1ccc(NC(=O)c2ccc(CN3CCN(C)CC3)cc2)cc1Nc1nccc(-c2cccnc2)n1 [Imatinib, Imatinib mesylate]
CML patients treated in chronic phase
  complete or nearly complete cytogenetic remission, share of patients: up to 80%
CML patients treated with imatinib
  CML patients who are or become resistant to treatment: about 20%
